# Laboratory results from patent US20220071233A1, “IN VITRO INSECT MUSCLE AS A NUTRITION SOURCE” (Trustees of Tufts College, priority 2018, published 2022).
# “Also recorded” adds a separate entry of the source.
# What was measured:
# DrAMPCs [1] = assay: CyQuant proliferation assay after hormone treatment; format: cell-based, Drosophila melanogaster
# Experimental: Drosophila melanogaster adult muscle progenitor-like cells (DrAMPCs) were acquired from Kerafast (Boston, Mass.) (#EF4006). The cell line was originally immortalized by the Persimmon Research Group at Harvard University, and was derived from primary embryo cultures in which Gal4 drives Ras^V12 and GFP expression. DrAMPCs were cultured in insect growth media composed of Schneider's Insect Medium from Sigma-Aldrich (St. Louis, Mo.) (#S0146) supplemented with 10% heat inactivated fetal bovine serum from ThermoFisher (Waltham, Mass.) (#16140) and 1% penicillin/streptomycin (ThermoFisher, #15140122). For serum-free growth media experiments, media consisted of Ex-Cell 405 Serum-Free Medium (Sigma-Aldrich, #14405C) and 1% penicillin/streptomycin. For static culture, DrAMPCs were cultured in either plasma-treated flasks (ThermoFisher, #156499) or ultra-low attachment flasks (Corning, N.Y.) (#CLS3814) and incubated at 19° C. in a temperature-controlled incubator from VWR (Radnor, Pa.) (#89511-416). For suspension culture, DrAMPCs were cultured in shaker flasks (ThermoFisher, #4115-0250) on an orbital shaker set at 40 rpm at room temperature. When indicated, dextran sulfate (Sigma-Aldrich, #67578) was supplemented to serum-free media by dissolution and sterile filtration with 0.2 μm bottle top filters (ThermoFisher, #595-3320). For hormone treatment and differentiation experiments, DrAMPCs were cultured in insect growth media or serum-free media supplemented with methoprene (Sigma-Aldrich, #33375) and/or 20-hydroxyecdysone (Sigma-Aldrich, #H5142) which were dissolved in DMSO (Sigma-Aldrich, #D8418). DrAMPCs were seeded at 75,000 or 300,000 cells/cm^2 in 2D culture and 1,000,000 cells/sponge in 3D culture. […]
# Cell adhesion to tissue culture plastic and chitosan films was quantified via a MTS Assay from Promega (Madison, Wis.) (#G3582) by measuring absorbance after 2.5-hour incubation with the MTS reagent. Cell proliferation and viability were measured by fluorescence, Live/Dead kit (ThermoFisher, #L3224) stained image analysis or CyQuant proliferation assays (ThermoFisher, #C7026). For fluorescence measurements, GFP-expressing DrAMPCs were imaged on a fluorescence microscope over the course of a week using the automated multi-point capture feature. Fluorescence was quantified on Fiji software and normalized to the values determined at the first time-point. For Live/Dead stained image analysis, cells were stained following the kit protocols and imaged on a fluorescence microscope. The images were analyzed with Fiji to quantify the viability and total cell population over time. […] Microplate measurements were performed on a SpectraMax M2 reader from Molecular Devices (San Jose, Calif.). Cell populations were determined from a standard curve.
# DrAMPCs [2] = assay: Cell elongation and differentiation after hormone treatment (image analysis, immunostaining); format: cell-based, Drosophila melanogaster
# Experimental: Drosophila melanogaster adult muscle progenitor-like cells (DrAMPCs) were acquired from Kerafast (Boston, Mass.) (#EF4006). The cell line was originally immortalized by the Persimmon Research Group at Harvard University, and was derived from primary embryo cultures in which Gal4 drives Ras^V12 and GFP expression. DrAMPCs were cultured in insect growth media composed of Schneider's Insect Medium from Sigma-Aldrich (St. Louis, Mo.) (#S0146) supplemented with 10% heat inactivated fetal bovine serum from ThermoFisher (Waltham, Mass.) (#16140) and 1% penicillin/streptomycin (ThermoFisher, #15140122). For serum-free growth media experiments, media consisted of Ex-Cell 405 Serum-Free Medium (Sigma-Aldrich, #14405C) and 1% penicillin/streptomycin. For static culture, DrAMPCs were cultured in either plasma-treated flasks (ThermoFisher, #156499) or ultra-low attachment flasks (Corning, N.Y.) (#CLS3814) and incubated at 19° C. in a temperature-controlled incubator from VWR (Radnor, Pa.) (#89511-416). For suspension culture, DrAMPCs were cultured in shaker flasks (ThermoFisher, #4115-0250) on an orbital shaker set at 40 rpm at room temperature. When indicated, dextran sulfate (Sigma-Aldrich, #67578) was supplemented to serum-free media by dissolution and sterile filtration with 0.2 μm bottle top filters (ThermoFisher, #595-3320). For hormone treatment and differentiation experiments, DrAMPCs were cultured in insect growth media or serum-free media supplemented with methoprene (Sigma-Aldrich, #33375) and/or 20-hydroxyecdysone (Sigma-Aldrich, #H5142) which were dissolved in DMSO (Sigma-Aldrich, #D8418). DrAMPCs were seeded at 75,000 or 300,000 cells/cm^2 in 2D culture and 1,000,000 cells/sponge in 3D culture. For mammalian controls, C2C12 cells from ATTC (Manassas, Va.) (#CRL-1772) were cultured in growth media composed of DMEM+Glutamax (ThermoFisher, #10566) supplemented with 10% heat inactivated fetal bovine serum and 1% penicillin/streptomycin. C2C12s were seeded at 10,000 cells/cm^2.
# Cell viability was determined by a Live/Dead staining kit (ThermoFisher, #L3224). At time of assay, media was gently aspirated from the cell surface and cells were rinsed with phosphate buffered saline (PBS) (ThermoFisher, #14040133). Cells were stained with 2 μM calcein AM and 4 μM EthD-1 solution for 30 minutes at room temperature in the dark and imaged with a fluorescence microscope. For immunocytochemical staining, media was gently aspirated from cells and the cell surface was rinsed with PBS. Cells were fixed with 4% paraformaldehyde from Fisher Scientific (Hampton, N.H.) (#J61899AK) for 10 minutes and rinsed with PBS. Cells were then permeabilized with 0.5% Triton X-100 and rinsed with blocking buffer consisting of phosphate buffered saline, 5% fetal bovine serum and 0.05% sodium azide. Cells were incubated in blocking buffer for 15 minutes before addition of primary antibody, then incubated at 4° C. overnight. Cells were rinsed and incubated with fresh blocking buffer for 15 minutes before addition of secondary antibody, then incubated in the dark on ice for 1 hour. Again, cells were rinsed and incubated with fresh blocking buffer for 15 minutes before counterstaining and mounting with DAPI mounting medium from Abcam (Cambridge, UK) (#ab104139). Detailed antibody information is available in Table 5. Fluorescence imaging was performed on a Keyence microscope (Osaka, Japan) (#BZ-X700). Confocal imaging was performed on a TCS SP8 microscope from Leica Microsystems (Wetzlar, Germany).
# [3] = average adult; cited from earlier work
# DrAMPCs [4] = assay: Adhesion and differentiation on chitosan sponge scaffolds; format: cell-based, Drosophila melanogaster
# Experimental: Mushroom chitosan of 100 kDa molecular weight from Chinova Bioworks (New Brunswick, Canada) was dissolved in 2% acetic acid in distilled water for 12 hours at room temperature on a stir plate. The chitosan solution was centrifuged at 16,880×g for 3 hours to remove undissolved particles and diluted in distilled water to the desired concentrations (1%, 2% and 4%). Concentrations were verified by drying small volumes at 60° C. for 2 hours and calculating dry weight/wet weight. To prepare films, the solution was cast on plastic and allowed to dry overnight. To prepare sponges, the solution was poured into PDMS molds with an aluminum sheet separating one side of the mold from a separate chamber. Liquid nitrogen was poured into the chamber opposite the chitosan solution and continually replenished until the entire solution had frozen across the temperature gradient. Samples were then lyophilized for 48 hours. Prior to sterilization and seeding, films and sponges were submerged in 1M sodium carbonate for 1 hour at room temperature and subsequently rinsed three times in distilled water for 20 minutes and soaked in distilled water overnight. For hydrated mechanical analysis, sectioned sponges were soaked in PBS prior to testing.
# Sponges used for seeding were cylinders 6 mm in diameter and 1.5 mm thick. […]
# [5] = test system: Manduca sexta embryonic precursor cell (Ms-EPCs); assay: Ms-EPC culture and differentiation; format: cell-based
# DrAMPCs [6] = assay: Potassium induced contraction; format: cell-based, Drosophila melanogaster
# Experimental: Cells were differentiated for 5 days before the experiment. High K+ concentration media was produced by dissolving KCl in growth media at the indicated concentration. Cells were imaged on a Phase Contrast microscope before growth media was aspirated and replaced with 600 mM K+ media. Cells were imaged over a duration of 15 minutes.
# DrAMPCs [7] = assay: Surface coatings: myosin heavy chain expression and cell attachment (image fluorescence quantification); format: cell-based, Drosophila melanogaster; conditions: cultures on coated surface
# DrAMPCs [8] = assay: Agitated suspension culture in shaker flasks (aggregation); format: cell-based, Drosophila melanogaster; conditions: 100 μg/mL dextran sulfate in EC405, shaker flasks
# Experimental: It was noted that when static culture flasks became over-confluent, the cells continued to grow in three-dimensional aggregates or in suspension. […] The cells were then transitioned from static suspension culture to agitated suspension culture with the use of shaker flasks incubated at room temperature. In agitated suspension, the cells formed aggregates (FIG. 1G). […] After expansion in suspension culture and removal of dextran sulfate, the cells transitioned back to adherent monolayers and retained a myoblast-like morphology.
# Drosophila melanogaster adult muscle progenitor-like cells (DrAMPCs) were acquired from Kerafast (Boston, Mass.) (#EF4006). The cell line was originally immortalized by the Persimmon Research Group at Harvard University, and was derived from primary embryo cultures in which Gal4 drives Ras^V12 and GFP expression. DrAMPCs were cultured in insect growth media composed of Schneider's Insect Medium from Sigma-Aldrich (St. Louis, Mo.) (#S0146) supplemented with 10% heat inactivated fetal bovine serum from ThermoFisher (Waltham, Mass.) (#16140) and 1% penicillin/streptomycin (ThermoFisher, #15140122). For serum-free growth media experiments, media consisted of Ex-Cell 405 Serum-Free Medium (Sigma-Aldrich, #14405C) and 1% penicillin/streptomycin. […]
# DrAMPCs [9] = assay: Adhesion and growth on mushroom chitosan films (MTS assay, fluorescence microscopy); format: cell-based, Drosophila melanogaster; conditions: 0.1% gelatin solution coating
# Experimental: Cell adhesion to tissue culture plastic and chitosan films was quantified via a MTS Assay from Promega (Madison, Wis.) (#G3582) by measuring absorbance after 2.5-hour incubation with the MTS reagent. Cell proliferation and viability were measured by fluorescence, Live/Dead kit (ThermoFisher, #L3224) stained image analysis or CyQuant proliferation assays (ThermoFisher, #C7026). For fluorescence measurements, GFP-expressing DrAMPCs were imaged on a fluorescence microscope over the course of a week using the automated multi-point capture feature. Fluorescence was quantified on Fiji software and normalized to the values determined at the first time-point. For Live/Dead stained image analysis, cells were stained following the kit protocols and imaged on a fluorescence microscope. The images were analyzed with Fiji to quantify the viability and total cell population over time. For CyQuant proliferation assays, cells were plated in 96-well plates for each time-point. At each time-point, media was blotted from the plates and plates were stored at −80° C. After all time-points were collected, plates were thawed to room temperature and stained with CyQuant working solution for 5 minutes. Microplate measurements were performed on a SpectraMax M2 reader from Molecular Devices (San Jose, Calif.). Cell populations were determined from a standard curve. […]
# [10] = both serum-supplemented and serum-free cultures
compound,measurement,setting,value
COC(C)(C)CCC[C@H](C)C/C=C/C(C)=C/C(=O)OC(C)C (racemic) [methoprene],comparison of treatment levels on proliferation,"DrAMPCs [1]; 500 ng/mL vs 1,000 ng/mL","the 500 ng/mL treatment level had a larger effect than the 1,000 ng/mL treatment"
same,proliferation versus control groups,"DrAMPCs [1]; 500 or 1,000 ng/mL, day 1 and 5",higher proliferation than control groups
same,proliferation,DrAMPCs [1]; [10],increased proliferation
same,average cell length less than control cells,DrAMPCs [2]; 500 ng/mL,8 μm
same,cell elongation (preliminary sign of differentiation),DrAMPCs [2]; JH treatment,inhibited cell elongation
same,recommended exposure,[3],0.3750 mg/day
CC(C)(O)CC[C@@H](O)[C@](C)(O)[C@H]1CC[C@@]2(O)C3=CC(=O)[C@@H]4C[C@@H](O)[C@@H](O)C[C@]4(C)[C@H]3CC[C@]12C [20-hydroxyecdysone],growth rates versus control groups,"DrAMPCs [1]; 0, 500 or 1000 ng/mL 20-HE",did not significantly differ from control groups
same,concentration able to trigger cell elongation,DrAMPCs [2]; as low as,40 ng/mL
same,differentiation,DrAMPCs [2]; [10],triggered differentiation
same,differentiation of EC405 adapted cells,"DrAMPCs [2]; small fraction of cells, 1 μg/mL 20-HE for 5 days","differentiate and form long, multinucleated myotubes that express myosin heavy chain"
same,generation of myosin heavy chain-expressing cells,DrAMPCs [4]; on plastic and chitosan scaffolds,myosin heavy chain-expressing cells could be generated (albeit at low efficiency)
same,fraction of cells on chitosan scaffolds differentiated,DrAMPCs [4]; treated with 20-hydroxyecdysone,< 1%
same,differentiation of primary Ms-EPC cells,[5]; differentiated with 20-hydroxyecdysone,"multinucleated, striated and express myosin heavy chain"
"[Cl-].[K+] [K^+, KCl]",cell viability after potassium treatment,DrAMPCs [6],95%
same,cell contraction,DrAMPCs [6]; 300 mM K+,did not contract
same,cell contraction,DrAMPCs [6]; 600 mM K+,did contract
same,"cell fractional shortening, myoblasts (elongated cells)","DrAMPCs [6]; 600 mM K+, image analysis, n=12",31.6%±14.8%
same,"cell fractional shortening, spherical proliferative precursor cells","DrAMPCs [6]; 600 mM K+, image analysis, n=14",1.6%±16.2%
Concanavalin A,cell attachment,DrAMPCs [7],do not increase cell attachment
same,expression of myosin heavy chain in differentiated DrAMPCs,DrAMPCs [7],may increase
dextran sulfate,cell aggregation in agitated suspension,DrAMPCs [8],sufficient to reduce aggregation and promote a single cell suspension
same,cell aggregation in agitated suspension,DrAMPCs [8]; listed as Dextran sulfate,sufficient to reduce cell aggregation
gelatin,cell adhesion and growth on gelatin-coated chitosan films,DrAMPCs [9],did not increase cell adhesion to chitosan films; also recorded: grow in aggregates and were detached from the center of the well during the PBS rinse
same,cell adhesion to gelatin coated tissue culture plastic,DrAMPCs [9],improve cell adhesion
laminin,cell attachment,DrAMPCs [7],do not increase cell attachment
same,expression of myosin heavy chain in differentiated DrAMPCs,DrAMPCs [7],may increase
poly-lysine,cell morphology of Ms-EPCs,[5]; poly-lysine coated plastic,"more cell elongation, perhaps differentiation"
